Reference: patent US10919889B2, “Chiral heterocyclic compound with hedgehog pathway antagonist activity, method and use thereof” (SUZHOU KINTOR PHARMACEUTICALS, INC., priority 2016, dated 2021)
Like-named read-outs stand apart in the source and are kept apart here.

Tested on: Hh signaling pathway
Test: NIH3T3-GRE-Luc luciferase reporter assay (primary assay)
Type: cell-based
Source text: NIH3T3 cells (CRL-1658, ATCC) were maintained in DMEM (Gibico) supplemented with 10% FBS (Hyclone). GRE-Luc plasmid was generated by inserting 8×Gli-1 responsive element (GRE) into the multiple cloning site of pGL4.26 vector (Promega). NIH3T3-GRE-Luc reporter cell line was established by hygromycin (Invitrogen) selection after transfected with GRE-Luc luciferase reporter plasmid. Single clones were validated by the induction of luciferase by recombinant sonic hedgehog (sHh) protein or small molecule agonist SAG (ABIN629346). Selected clone was used to monitor the Hh signaling.
(§1) The NIH3T3-GRE-Luc cells were maintained in complete culture medium (DMEM with 4 mM L-Gln, 1.5 g/L sodium bicarbonate and 4.5 g/L glucose supplemented with 100 μg/mL hygromycin and 10% FBS). When confluent, the cells were trypsinized and re-suspended in assay medium (0.5% serum-containing DMEM). After 100 µL/well of cells suspension was added to the 96-well-plate (Final cell concentration is 15,000 cells/well), cells were cultured for additional 48 hours before adding the compounds.
Compounds were serially diluted in DMSO and further diluted with assay medium. In an embodiment, 10 nM SAG was added in assay medium as the agonist of Hh signaling. After the compounds and agonist were prepared, the medium was removed carefully. 100 μL of assay medium containing compound and agonist was added to the cell with care. Cell plates were incubated at 37° C. for additional 48 hours.
(§2) Following the 48 hours incubation, 40 μL/well of luciferase media (Brigh-Glo, Promega) was added to the cells. The plate was incubated at room temperature for 5 minutes under gentle shaking. Luminescence signal was measured with plate reader (PHERAstar FS, BMG). The potency of compounds was calculated based on the inhibition of luminescence signaling.
NIH3T3 cells (CRL-1658, ATCC) were maintained in DMEM (11965, Gibico) supplemented with 10% FBS (Hyclone). GRE-Luc plasmid was generated by cloning 8×Gli-1 responsive element (GRE) into the MCS of pGL4.26 (Promega). NIH3T3-GRE-Luc reporter cell lines were established by hygromycin (Invitrogen) selection after transfection with GRE-Luc luciferase reporter plasmid. Single clones were validated for the assay quality with N-terminal fragment of recombinant sonic hedgehog protein or small molecule agonist SAG (ABIN629346). Selected clone were used to monitor the Hh signaling.
as §1, with “ug/ml” for “μg/mL”, “resuspended” for “re-suspended”, “ul/well” for “µL/well”
Compounds were serially diluted in DMSO and further diluted with assay medium. In an embodiment, 10 nM SAG was added in assay medium as the agonist of Hh signaling. After the compounds and agonist were prepared, carefully remove medium (Aspirate the medium with pipette instead of vacuum, or else the NIH3T3 cells monolayer will be detached). 100 ul of assay medium containing compound or agonist was added to the cell with care. Cell plates were incubated at 37 degree for additional 48 hours.
as §2, with “ul/well” for “μL/well”, “min” for “minutes”, “basing” for “based”

[1] = 48 h, 10 nM SAG as agonist, 48 hours, read-out: Effect IC50 (nM)(GRE reporter assay)
[2] = IC50 of vismodegib over that of the tested compound in the same assay
[3] = IC50 value of Vismodegib over that of the tested compound in the same assay
[4] = primary assay, Table 5, read-out: SMO IC50

Structure (SMILES): Cc1cnc(-c2cc(N3CCc4nc(N5CCC(O)CC5)ncc4C3C)ncc2Cl)c(C)c1 (racemic) [B]
- IC50 [1]: 2.7 nM
- Ratio [2]: 5.0
- Ratio [3]: 5.0
- IC50 [4]: 2.7 nM
- IC50 (read-out: IC50 (Hh pathway)): 2.7 nM

Structure (SMILES): Cc1cnc(-c2cc(N3CCc4nc(N5CCC(O)CC5)ncc4[C@H]3C)ncc2Cl)c(C)c1 [Compound B1, (R)-1-(6-(5′-chloro-3,5-dimethyl-[2,4′-bipyridin]-2′-yl)-5-methyl-5,6,7,8-tetrahydropyrido[4,3-d]pyrimidin-2-yl)piperidin-4-ol]
- Hh pathway inhibitory activity compared to compound B2 of S configuration: more than 20 fold
- increase of inhibitory activity against Hedgehog pathway compared with A-55: about 12 folds
- IC50 [1]: 0.8 nM
- Ratio [2]: 22.4
- Ratio [3]: 22.4
- increase of Hh pathway inhibitory activity compared to racemic compound B (chiral compound vs racemic compound): about 3 fold
- IC50 [4]: 0.8 nM
- IC50 (read-out: IC50 (Hh pathway)): 0.8 nM
